Measured values as given in the NIST ThermoML archive (doi:10.1016/j.jct.2017.07.012).
± gives the expanded uncertainty stated by the source.

Key:
[1] = activity coefficient (dimensionless); of the first substance listed, at infinite dilution; xn = mol fraction of the nth substance listed; settings: 101.33 kPa, Liquid, Chromatography, x1 = 0
[2] = 101.33 kPa, Liquid, Vibrating tube method

SMILES	activity coefficient ([1]; 333.15 K)	activity coefficient ([1]; 343.15 K)	activity coefficient ([1]; 353.15 K)	activity coefficient ([1]; 303.15 K)	activity coefficient ([1]; 313.15 K)	activity coefficient ([1]; 323.15 K)	mass density ([2]; 303.15 K)	mass density ([2]; 313.15 K)	mass density ([2]; 323.15 K)	mass density ([2]; 333.15 K)	mass density ([2]; 343.15 K)	mass density ([2]; 353.15 K)
CCCCO [butan-1-ol] + CCCCn1cc[n+](C)c1.[O-][Cl+3]([O-])([O-])[O-]	2.73 ± 0.29	2.49 ± 0.26	2.39 ± 0.25									
CO [methanol] + CCCCn1cc[n+](C)c1.[O-][Cl+3]([O-])([O-])[O-]	1.02 ± 0.1	1.01 ± 0.1	1 ± 0.1	1.07 ± 0.11	1.06 ± 0.11	1.05 ± 0.11						
C1CCOC1 [tetrahydrofuran] + CCCCn1cc[n+](C)c1.[O-][Cl+3]([O-])([O-])[O-]	1.94 ± 0.2	1.94 ± 0.2	2.06 ± 0.22	1.5 ± 0.16	1.57 ± 0.16	1.67 ± 0.17						
ClC(Cl)Cl [trichloromethane] + CCCCn1cc[n+](C)c1.[O-][Cl+3]([O-])([O-])[O-]	0.98 ± 0.1	1.1 ± 0.11	1.16 ± 0.12	0.78 ± 0.08	0.87 ± 0.09	0.93 ± 0.09						
CC(C)O [propan-2-ol] + CCCCn1cc[n+](C)c1.[O-][Cl+3]([O-])([O-])[O-]	2.06 ± 0.22	1.93 ± 0.2	1.92 ± 0.2	2.27 ± 0.24	2.18 ± 0.23	2.06 ± 0.22						
CCCCn1cc[n+](C)c1.[O-][Cl+3]([O-])([O-])[O-] [1-butyl-3-methylimidazolium perchlorate]							1247.87 ± 2.4 kg/m3	1240.83 ± 2.4 kg/m3	1233.88 ± 2.4 kg/m3	1227.01 ± 2.4 kg/m3	1220.19 ± 2.4 kg/m3	1213.44 ± 2.4 kg/m3
CCCCCCCCCC [decane] + CCCCn1cc[n+](C)c1.[O-][Cl+3]([O-])([O-])[O-]	204 ± 22	200 ± 21	192 ± 20	226 ± 24	219 ± 23	217 ± 23						
O [water] + CCCCn1cc[n+](C)c1.[O-][Cl+3]([O-])([O-])[O-]	1.02 ± 0.1	1.01 ± 0.1	1 ± 0.1									
CCO [ethanol] + CCCCn1cc[n+](C)c1.[O-][Cl+3]([O-])([O-])[O-]	1.5 ± 0.16	1.45 ± 0.15	1.44 ± 0.15	1.67 ± 0.17	1.59 ± 0.17	1.59 ± 0.17						
CC(C)CC(C)(C)C [2,2,4-trimethylpentane] + CCCCn1cc[n+](C)c1.[O-][Cl+3]([O-])([O-])[O-]	119 ± 12	122 ± 13	125 ± 13	100 ± 11	102 ± 11	107 ± 11						
c1ccccc1 [benzene] + CCCCn1cc[n+](C)c1.[O-][Cl+3]([O-])([O-])[O-]	2 ± 0.21	2.08 ± 0.22	2.17 ± 0.23	1.78 ± 0.19	1.82 ± 0.19	1.97 ± 0.21						
CCC(C)O (centres undefined) [butan-2-ol] + CCCCn1cc[n+](C)c1.[O-][Cl+3]([O-])([O-])[O-]	2.61 ± 0.27	2.47 ± 0.26	2.37 ± 0.25		2.91 ± 0.31	2.66 ± 0.28						
CC(C)CO [2-methyl-1-propanol] + CCCCn1cc[n+](C)c1.[O-][Cl+3]([O-])([O-])[O-]	2.67 ± 0.28	2.48 ± 0.26	2.32 ± 0.24			2.9 ± 0.3						
CCCCCO [pentan-1-ol] + CCCCn1cc[n+](C)c1.[O-][Cl+3]([O-])([O-])[O-]	3.88 ± 0.41	3.55 ± 0.37	3.23 ± 0.34									
CCCCCCC [heptane] + CCCCn1cc[n+](C)c1.[O-][Cl+3]([O-])([O-])[O-]	108 ± 11	115 ± 12	121 ± 13	85.9 ± 9.1	91.6 ± 9.7	99.1 ± 10						
Cc1ccc(C)cc1 [1,4-dimethylbenzene] + CCCCn1cc[n+](C)c1.[O-][Cl+3]([O-])([O-])[O-]	4.91 ± 0.52	5.13 ± 0.54	5.21 ± 0.55			4.82 ± 0.51						
C1CCCCC1 [cyclohexane] + CCCCn1cc[n+](C)c1.[O-][Cl+3]([O-])([O-])[O-]	35.4 ± 3.7	36.2 ± 3.8	37.5 ± 4	34.5 ± 3.6	34.6 ± 3.6	35.2 ± 3.7						
Cc1ccccc1C [1,2-dimethylbenzene] + CCCCn1cc[n+](C)c1.[O-][Cl+3]([O-])([O-])[O-]	4.16 ± 0.44	4.27 ± 0.45	4.37 ± 0.46			4.09 ± 0.43						

SMILES	activity coefficient ([1]; 333.15 K)	activity coefficient ([1]; 343.15 K)	activity coefficient ([1]; 353.15 K)	activity coefficient ([1]; 303.15 K)	activity coefficient ([1]; 313.15 K)	activity coefficient ([1]; 323.15 K)	mass density ([2]; 303.15 K)	mass density ([2]; 313.15 K)	mass density ([2]; 323.15 K)	mass density ([2]; 333.15 K)	mass density ([2]; 343.15 K)	mass density ([2]; 353.15 K)
CCCCCCCCC [nonane] + CCCCn1cc[n+](C)c1.[O-][Cl+3]([O-])([O-])[O-]	137 ± 14	135 ± 14	133 ± 14	151 ± 16	142 ± 15	142 ± 15						
CCc1ccccc1 [ethylbenzene] + CCCCn1cc[n+](C)c1.[O-][Cl+3]([O-])([O-])[O-]	5.11 ± 0.54	5.29 ± 0.56	5.35 ± 0.56			5.05 ± 0.53						
CCCO [propan-1-ol] + CCCCn1cc[n+](C)c1.[O-][Cl+3]([O-])([O-])[O-]	1.99 ± 0.21	1.87 ± 0.2	1.82 ± 0.19			2.05 ± 0.22						
Cc1cccc(C)c1 [1,3-dimethylbenzene] + CCCCn1cc[n+](C)c1.[O-][Cl+3]([O-])([O-])[O-]	5.08 ± 0.53	5.28 ± 0.55	5.36 ± 0.56			4.99 ± 0.52						
ClC(Cl)(Cl)Cl [tetrachloromethane] + CCCCn1cc[n+](C)c1.[O-][Cl+3]([O-])([O-])[O-]	4.22 ± 0.44	4.6 ± 0.48	4.67 ± 0.49	3.61 ± 0.38	3.93 ± 0.41	4.1 ± 0.43						
CC(C)CCO [3-methylbutan-1-ol] + CCCCn1cc[n+](C)c1.[O-][Cl+3]([O-])([O-])[O-]	3.49 ± 0.37	3.21 ± 0.34	2.97 ± 0.31									
ClCCl [dichloromethane] + CCCCn1cc[n+](C)c1.[O-][Cl+3]([O-])([O-])[O-]	1.01 ± 0.1	1.1 ± 0.11	1.13 ± 0.12	0.84 ± 0.09	0.91 ± 0.09	0.96 ± 0.1						
C1COCCO1 [1,4-dioxane] + CCCCn1cc[n+](C)c1.[O-][Cl+3]([O-])([O-])[O-]	1.02 ± 0.1	1.1 ± 0.11	1.14 ± 0.12			1 ± 0.1						
CCCCCCCC [octane] + CCCCn1cc[n+](C)c1.[O-][Cl+3]([O-])([O-])[O-]	119 ± 13	122 ± 13	127 ± 13	109 ± 12	111 ± 12	119 ± 12						
CCOC(C)=O [ethyl acetate] + CCCCn1cc[n+](C)c1.[O-][Cl+3]([O-])([O-])[O-]	2.54 ± 0.27	2.69 ± 0.28	2.78 ± 0.29	2.22 ± 0.23	2.31 ± 0.24	2.46 ± 0.26						
C1=CCCCC1 [cyclohexene] + CCCCn1cc[n+](C)c1.[O-][Cl+3]([O-])([O-])[O-]	14.6 ± 1.5	14.4 ± 1.5	14.2 ± 1.5	15.1 ± 1.6	14.8 ± 1.6	14.7 ± 1.6						
CC(C)=O [acetone] + CCCCn1cc[n+](C)c1.[O-][Cl+3]([O-])([O-])[O-]	0.98 ± 0.1	1.05 ± 0.11	1.08 ± 0.11	0.84 ± 0.09	0.91 ± 0.09	0.94 ± 0.1						
CCCCCC [hexane] + CCCCn1cc[n+](C)c1.[O-][Cl+3]([O-])([O-])[O-]	107 ± 11	112 ± 12	118 ± 12	81.7 ± 8.6	89.2 ± 9.4	98 ± 10						
C=Cc1ccccc1 [styrene] + CCCCn1cc[n+](C)c1.[O-][Cl+3]([O-])([O-])[O-]	2.29 ± 0.24	2.42 ± 0.25	2.5 ± 0.26									
CC#N [acetonitrile] + CCCCn1cc[n+](C)c1.[O-][Cl+3]([O-])([O-])[O-]	0.65 ± 0.07	0.67 ± 0.07	0.69 ± 0.07	0.61 ± 0.07	0.62 ± 0.07	0.63 ± 0.07						
CC1CCCCC1 [methylcyclohexane] + CCCCn1cc[n+](C)c1.[O-][Cl+3]([O-])([O-])[O-]	47.3 ± 5	47.3 ± 5	47.8 ± 5	46.5 ± 4.9	46.7 ± 4.9	47 ± 5						
Cc1ccccc1 [toluene] + CCCCn1cc[n+](C)c1.[O-][Cl+3]([O-])([O-])[O-]	3.14 ± 0.33	3.29 ± 0.35	3.38 ± 0.36		2.96 ± 0.31	3.1 ± 0.33						
